{"source": "ChEMBL document CHEMBL3856252", "about": "“Truncated Autoinducing Peptides as Antagonists of Staphylococcus lugdunensis Quorum Sensing” (J Med Chem, 2016)", "key": {"[1]": {"assay": "Inhibition of Staphylococcus aureus RN6390B quorum sensing system AgrC-1 using cephalosporin/nitrocefin as substrate by P3 reporter assay"}, "[2]": {"assay": "Competitive inhibition of Staphylococcus aureus MW2 quorum sensing system AgrC-3 after 24 hrs in presence of mouse IgG2a by YFP reporter gene assay"}, "[3]": {"assay": "Competitive inhibition of Staphylococcus aureus SA502A quorum sensing system AgrC-2 after 24 hrs in presence of mouse IgG2a by YFP reporter gene assay"}, "[4]": {"assay": "Competitive inhibition of Staphylococcus aureus RN9372 quorum sensing system AgrC-2 by colorimetric analysis"}, "[5]": {"assay": "Competitive inhibition of Staphylococcus aureus RN9222 quorum sensing system AgrC-1 by colorimetric analysis"}, "[6]": {"assay": "Competitive inhibition of Staphylococcus aureus quorum sensing system AgrC-3 by colorimetric analysis"}}, "note": "Where a SMILES comes first, the peptide text is derived from it.", "data": [{"smiles": "CC[C@H](C)[C@@H]1NC(=O)[C@H](Cc2ccccc2)NC(=O)[C@H](CC(=O)O)NC(=O)[C@@H](NC(=O)[C@@H](NC(=O)[C@H](CO)NC(=O)[C@@H](N)Cc2ccc(O)cc2)[C@@H](C)O)CSC(=O)[C@H](CCSC)NC1=O", "note": "(HELM PEPTIDE1{Y.S.T.C.D.F.I.M}$PEPTIDE1,PEPTIDE1,4:R3-8:R2$$$V2.0)", "values": [{"measurement": "IC50", "setting": "[1]", "value": 20, "unit": "nM"}]}, {"smiles": "CC(=O)N[C@H]1CSC(=O)[C@H](Cc2ccccc2)NC(=O)[C@H](Cc2ccc(O)cc2)NC(=O)[C@H](CO)NC(=O)[C@H](C)NC1=O", "note": "(HELM PEPTIDE1{[ac].C.A.S.Y.F}$PEPTIDE1,PEPTIDE1,2:R3-6:R2$$$V2.0)", "values": [{"measurement": "IC50", "setting": "[2]", "value": 13, "unit": "nM"}, {"measurement": "IC50", "setting": "[3]", "value": 160, "unit": "nM"}]}, {"smiles": "CC(=O)N[C@H]1CSC(=O)[C@H](Cc2ccccc2)NC(=O)[C@H](Cc2ccc(O)cc2)NC(=O)[C@H](C)NC(=O)[C@H](CC(N)=O)NC1=O", "note": "(HELM PEPTIDE1{[ac].C.N.A.Y.F}$PEPTIDE1,PEPTIDE1,2:R3-6:R2$$$V2.0)", "values": [{"measurement": "IC50", "setting": "[4]", "value": 420, "unit": "nM"}, {"measurement": "IC50", "setting": "[5]", "value": 380, "unit": "nM"}, {"measurement": "IC50", "setting": "[6]", "value": 40, "unit": "nM"}]}]}
